Type in all cases: biochemical
In assay [1] the target is human TYK2 catalytic kinase (JH1) domain (Homo sapiens (Human), UniProt P29597). The experiment in a line: ADP-Glo Kinase Assay, recombinant TYK2 catalytic kinase (JH1) domain. Conditions: recombinant JH1 domain 2 nM, 10 μM ATP, JAK3-974 peptide, mean, read-out: TYK2 biochem IC50 (nM) Mean. Summed up:
(§1)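 Luminescent ADP read-out after residual ATP depletion, 100 min reaction. Kinase domain concentrations were 4 nM (JAK1), 0.2 nM (JAK2), 0.3 nM (JAK3) and 2 nM (TYK2), each with 50 μM peptide. IC50 values came from 4-parameter logistic fits over 11 points, 3-fold steps, top 10 μM or 1 μM.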
A general note: In ADP-Glo the light output rises with the ADP produced.

In assay [2] the target is human JAK1 catalytic kinase (JH1) domain (Homo sapiens (Human), UniProt P23458). The experiment in a line: ADP-Glo Kinase Assay, recombinant JAK1 catalytic kinase (JH1) domain. The note with it: recombinant JH1 domain 4 nM, 35 μM ATP, JAK3-342 peptide, mean, read-out: JAK1 biochem IC50 (nM) Mean. In short, it runs like this:
as §1

The target in assay [3] is human JAK2 catalytic kinase (JH1) domain (Homo sapiens (Human), UniProt O60674). The experiment in a line: ADP-Glo Kinase Assay, recombinant JAK2 catalytic kinase (JH1) domain. Conditions: recombinant JH1 domain 0.2 nM, 15 μM ATP, JAK3-974 peptide, mean, read-out: JAK2 biochem IC50 (nM) Mean. Summed up: as §1
The target of assay [4] is human JAK3 catalytic kinase (JH1) domain (Homo sapiens (Human), UniProt P52333). In words: ADP-Glo Kinase Assay, recombinant JAK3 catalytic kinase (JH1) domain. The note with it: recombinant JH1 domain 0.3 nM, 4 μM ATP, JAK3-974 peptide, mean, read-out: JAK3 biochem IC50 (nM) Mean. In short, it runs like this:
as §1

human JAK3 catalytic kinase (JH1) domain, sequence (P52333 822-1111): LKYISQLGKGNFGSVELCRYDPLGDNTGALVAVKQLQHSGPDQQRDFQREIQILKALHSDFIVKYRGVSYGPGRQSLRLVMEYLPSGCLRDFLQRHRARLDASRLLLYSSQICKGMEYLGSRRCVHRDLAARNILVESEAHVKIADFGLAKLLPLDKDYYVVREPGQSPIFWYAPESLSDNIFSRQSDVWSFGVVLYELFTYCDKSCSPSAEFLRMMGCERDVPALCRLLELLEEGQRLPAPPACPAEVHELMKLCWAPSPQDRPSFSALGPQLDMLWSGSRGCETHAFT
human JAK1 catalytic kinase (JH1) domain, sequence (P23458 875-1153): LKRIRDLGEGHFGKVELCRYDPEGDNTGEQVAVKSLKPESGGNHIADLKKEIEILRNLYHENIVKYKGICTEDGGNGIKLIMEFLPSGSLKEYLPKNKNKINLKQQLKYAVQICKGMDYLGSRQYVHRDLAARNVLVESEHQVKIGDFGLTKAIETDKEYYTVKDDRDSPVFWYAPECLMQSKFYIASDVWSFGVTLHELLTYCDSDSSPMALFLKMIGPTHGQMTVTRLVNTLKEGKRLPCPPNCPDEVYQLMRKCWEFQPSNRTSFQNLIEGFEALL
human TYK2 catalytic kinase (JH1) domain, sequence (P29597 897-1176): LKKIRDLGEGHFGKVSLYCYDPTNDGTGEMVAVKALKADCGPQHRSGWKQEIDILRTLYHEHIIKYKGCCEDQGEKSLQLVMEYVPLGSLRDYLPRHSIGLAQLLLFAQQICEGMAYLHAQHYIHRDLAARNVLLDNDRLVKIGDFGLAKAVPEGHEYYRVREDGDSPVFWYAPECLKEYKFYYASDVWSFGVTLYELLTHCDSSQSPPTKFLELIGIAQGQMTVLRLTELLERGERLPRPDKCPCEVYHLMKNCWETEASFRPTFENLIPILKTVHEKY
human JAK2 catalytic kinase (JH1) domain, sequence (O60674 849-1124): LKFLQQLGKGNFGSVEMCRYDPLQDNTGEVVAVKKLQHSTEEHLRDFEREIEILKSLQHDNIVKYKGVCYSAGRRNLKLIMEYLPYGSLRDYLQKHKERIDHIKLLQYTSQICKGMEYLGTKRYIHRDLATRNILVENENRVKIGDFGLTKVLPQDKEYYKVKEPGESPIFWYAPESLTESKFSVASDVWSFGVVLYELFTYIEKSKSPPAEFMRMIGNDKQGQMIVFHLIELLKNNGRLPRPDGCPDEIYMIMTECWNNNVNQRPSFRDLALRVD

For `Cn1cc(-c2cc3c(N4CC5CCC(C4)N5C(=O)C4CC4)ncnn3c2)c(F)n1` [Example 145], the IC50 (in general, the point on the concentration scale where inhibition reaches its midpoint) in assay [1] was determined as 202 nM; in assay [2], 2360 nM; in assay [3], 6020 nM; in assay [4] it was 6520 nM.
For `Cn1cc(-c2cc3c(N4CC5CCC(C4)N5C(=O)C4CC4)ncnn3c2)cn1` [Example 146, cyclopropyl(3-(6-(1-methyl-1H-pyrazol-4-yl)pyrrolo[2,1-f][1,2,4]triazin-4-yl)-3,8-diazabicyclo[3.2.1]octan-8-yl)methanone], the IC50 in assay [1] amounted to 166 nM; in assay [2] it was 1880 nM; in assay [3] it was 5850 nM; in assay [4], 3240 nM.
In the same order, the values of `CCn1cc(-c2cc3c(N4CC5CCC(C4)N5C(=O)C4CC4)ncnn3c2)cn1` [Example 147] are 147 nM, 974 nM, 2960 nM and 2090 nM.
In the same order, the values of `CC(C)n1cc(-c2cc3c(N4CC5CCC(C4)N5C(=O)C4CC4)ncnn3c2)cn1` [Example 148] are 136 nM, 731 nM, 1650 nM and 2140 nM.
Turning to `O=C(C1CC1)N1C2CCC1CN(c1ncnn3cc(-c4cnn(C5CCC5)c4)cc13)C2` [Example 149], the 50% inhibitory concentration (IC50) in assay [1] is 141 nM; in assay [2] it was 942 nM; in assay [3], 3130 nM; in assay [4], 3010 nM.
On to `O=C(C1CC1)N1C2CCC1CN(c1ncnn3cc(-c4cnn(C(F)F)c4)cc13)C2` [Example 150], for which the half-inhibitory concentration (IC50) in assay [1] amounted to 190 nM; in assay [2], 1850 nM; in assay [3], 3370 nM; in assay [4] it was 5620 nM.
As to `O=C(C1CC1)N1C2CCC1CN(c1ncnn3cc(-c4cnn(C5COC5)c4)cc13)C2` [Example 151], the IC50 in assay [1] was determined as 239 nM; in assay [2] it was 3300 nM; in assay [3] it was 4100 nM; in assay [4] it was 3380 nM.
On to `O=C(C1CC1)N1C2CCC1CN(c1ncnn3cc(-c4cnn(C5CCOC5)c4)cc13)C2` (stereo not shown) [Example 152], for which the IC50 in assay [1] is 145 nM; in assay [2] it was 1670 nM; in assay [3], 2150 nM; in assay [4], 2590 nM.
On the same counts, the results for `O=C(C1CC1)N1C2CCC1CN(c1ncnn3cc(-c4cnn(C5CCOCC5)c4)cc13)C2` [Example 153] are 99.2 nM, 1280 nM, 1520 nM and 1900 nM.
On the same counts, the results for `O=C(C1CC1)N1C2CCC1CN(c1ncnn3cc(-c4cnn(C(F)(F)F)c4)cc13)C2` [Example 154] are 490 nM, 2950 nM, 10000 nM and 10000 nM.
In the same order, the values of `O=C(C1CC1)N1C2CCC1CN(c1ncnn3cc(-c4cnn(CF)c4)cc13)C2` [Example 155] are 293 nM, 1810 nM, 5180 nM and 4000 nM.
Turning to `O=C(C1CC1)N1C2CCC1CN(c1ncnn3cc(-c4cnn([C@@H]5CCOC5)c4)cc13)C2` [Example 156, cyclopropyl(3-(6-(1-((R)-tetrahydrofuran-3-yl)-1H-pyrazol-4-yl)pyrrolo[2,1-f][1,2,4]triazin-4-yl)-3,8-diazabicyclo[3.2.1]octan-8-yl)methanone], the half-maximal inhibitory concentration (IC50) in assay [1] was found to be 251 nM; in assay [2] it was 1500 nM; in assay [3] it was 3860 nM; in assay [4], 3850 nM.
On the same counts, the results for `O=C(C1CC1)N1C2CCC1CN(c1ncnn3cc(-c4cnn([C@H]5CCOC5)c4)cc13)C2` [Example 157, cyclopropyl(3-(6-(1-((S)-tetrahydrofuran-3-yl)-1H-pyrazol-4-yl)pyrrolo[2,1-f][1,2,4]triazin-4-yl)-3,8-diazabicyclo[3.2.1]octan-8-yl)methanone] are 151 nM, 1380 nM, 2270 nM and 2250 nM.
In the same order, the values of `Cc1cc(-c2cc3c(N4CC5CCC(C4)N5C(=O)C4CC4)ncnn3c2)on1` [Example 158, Cyclopropyl(3-(6-(3-methylisoxazol-5-yl)pyrrolo[2,1-f][1,2,4]triazin-4-yl)-3,8-diazabicyclo[3.2.1]octan-8-yl)methanone] are 656 nM, 8060 nM, 10000 nM and 10000 nM.
In the same order, the values of `Cn1cc(-c2cc3c(N4CC5CCC(C4)N5C(=O)[C@@H]4C[C@H]4F)ccnn3c2)cn1` [Example 159, ((1S,2R)-2-fluorocyclopropyl)(3-(6-(1-methyl-1H-pyrazol-4-yl)pyrrolo[1,2-b]pyridazin-4-yl)-3,8-diazabicyclo[3.2.1]octan-8-yl)methanone] are 1.1 nM, 51 nM, 30 nM and 263 nM.
In the case of `O=C(C1CC1)N1C2CCC1CN(c1ncnn3cc(-c4cnn(CC5COC5)c4)cc13)C2` [Example 160], the concentration for half-maximal inhibition (IC50) came to 107 nM in assay [1], 555 nM in assay [2], 931 nM in assay [3] and 780 nM in assay [4].
`CCn1ncc(-c2cc3c(N4CC5CCC(C4)N5C(=O)C4CC4)ncnn3c2)c1F` [Example 161]: the IC50 in assay [1] is 120 nM; in assay [2], 492 nM; in assay [3], 2460 nM; in assay [4] it was 1230 nM.
`CC(C)n1ncc(-c2cc3c(N4CC5CCC(C4)N5C(=O)C4CC4)ncnn3c2)c1F` [Example 162]: the IC50 in assay [1] amounted to 94.9 nM; in assay [2], 210 nM; in assay [3], 1620 nM; in assay [4], 1250 nM.
In the same order, the values of `O=C(C1CC1)N1C2CCC1CN(c1ncnn3cc(-c4cnn(C(F)F)c4)c(F)c13)C2` [Example 163] are 746 nM, 5120 nM, 10000 nM and 10000 nM.
In the same order, the values of `O=C([C@@H]1C[C@H]1F)N1C2CCC1CN(c1ncnn3cc(-c4ccnc(F)c4)cc13)C2` [Example 164] are 48.8 nM, 447 nM, 1300 nM and 7250 nM.
In the same order, the values of `Cn1cc(-c2cc3c(N4CC5CCC(C4)N5C(=O)[C@@H]4C[C@H]4F)ncnn3c2)ccc1=O` [Example 165] are 40.3 nM, 478 nM, 902 nM and 4140 nM.
Regarding `Cc1cc(-c2cc3c(N4CC5CCC(C4)N5C(=O)[C@@H]4C[C@H]4F)ncnn3c2)on1` [Example 166], the 50% inhibitory concentration (IC50) amounted to 56 nM in assay [1], 1160 nM in assay [2], 1050 nM in assay [3] and 9260 nM in assay [4].
Take `Cn1cc(-c2cc3c(N4CC5CCC(C4)N5C(=O)[C@@H]4C[C@H]4F)ncnn3c2)cc(F)c1=O` [Example 167]: the half-inhibitory concentration (IC50) in assay [1] worked out at 95 nM; in assay [2], 2210 nM; in assay [3], 1740 nM; in assay [4], 10000 nM.
On the same counts, the results for `Cc1c(-c2cc3c(N4CC5CCC(C4)N5C(=O)C4CC4)ncnn3c2)cnn1C` [Example 168] are 317 nM, 5470 nM, 7850 nM and 7690 nM.
On the same counts, the results for `O=C([C@@H]1C[C@H]1F)N1C2CCC1CN(c1ccnn3cc(-c4ccc(F)nc4)cc13)C2` [Example 169] are 1.8 nM, 47 nM, 49 nM and 288 nM.
On the same counts, the results for `O=C([C@@H]1C[C@H]1F)N1C2CCC1CN(c1ccnn3cc(-c4ccnc(F)c4)cc13)C2` [Example 170] are 1.2 nM, 25 nM, 36 nM and 344 nM.
Turning to `Cn1ccc(-c2cc3c(N4CC5CCC(C4)N5C(=O)[C@@H]4C[C@H]4F)ccnn3c2)cc1=O` [Example 171], the IC50 in assay [1] is 1.5 nM; in assay [2], 136 nM; in assay [3], 28 nM; in assay [4] it was 322 nM.
Regarding `Cn1cc(-c2cc3c(N4CC5CCC(C4)N5C(=O)[C@@H]4C[C@H]4F)ccnn3c2)ccc1=O` [Example 172], the IC50 in assay [1] turned out to be 2.6 nM; in assay [2] it was 32 nM; in assay [3] it was 54 nM; in assay [4], 595 nM.
Regarding `Cc1cc(-c2cc3c(N4CC5CCC(C4)N5C(=O)[C@@H]4C[C@H]4F)ccnn3c2)on1` [Example 173], the half-maximal inhibitory concentration (IC50) came out at 2.4 nM in assay [1], 81 nM in assay [2], 37 nM in assay [3] and 793 nM in assay [4].
As to `Cn1cc(-c2cc3c(N4CC5CCC(C4)N5C(=O)[C@@H]4C[C@H]4F)ccnn3c2)cc(F)c1=O` [Example 174], the half-inhibitory concentration (IC50) in assay [1] came to 6.6 nM; in assay [2], 149 nM; in assay [3], 84 nM; in assay [4], 1600 nM.
On the same counts, the results for `O=C([C@@H]1C[C@H]1F)N1C2CCC1CN(c1ccnn3cc(C4CCOC4)cc13)C2` (stereo partly drawn) [Example 175, ((1S,2R)-2-fluorocyclopropyl)(3-(6-(tetrahydrofuran-3-yl)pyrrolo[1,2-b]pyridazin-4-yl)-3,8-diazabicyclo[3.2.1]octan-8-yl)methanone] are 847 nM, no less than 10000 nM, no less than 10000 nM and no less than 10000 nM.

Source of the values: US20240360157A1, “TYK2 INHIBITORS” (BIOGEN MA INC., priority 2021, published 2024).
